{
  "source": "ChEMBL document CHEMBL4699511",
  "about": "“Cedrol, a Sesquiterpene Alcohol, Enhances the Anticancer Efficacy of Temozolomide in Attenuating Drug Resistance via Regulation of the DNA Damage Response and MGMT Expression” (J Nat Prod, 2020)",
  "key": {"DBTRG-05MG [1]": {"tested_on": "DBTRG-05MG", "assay": "Synergistic cytotoxicity against human DBTRG-05MG cells assessed as combination index at 89.9 uM after 48 hrs in presence of 103 uM TMZ by MTT assay", "assay_type": "functional"}, "DBTRG-05MG [2]": {"tested_on": "DBTRG-05MG", "assay": "Synergistic cytotoxicity against human DBTRG-05MG cells assessed as combination index at 112.4 uM after 48 hrs in presence of 412.1 uM TMZ by MTT assay", "assay_type": "functional"}, "RG2 [3]": {"tested_on": "RG2", "assay": "Synergistic cytotoxicity against rat RG2 cells assessed as synergistic effect index at 89.9 uM after 48 hrs in presence of 309 uM TMZ by MTT assay", "assay_type": "functional"}, "RG2 [4]": {"tested_on": "RG2", "assay": "Synergistic cytotoxicity against rat RG2 cells assessed as synergistic effect index at 89.9 uM after 48 hrs in presence of 412.1 uM TMZ by MTT assay", "assay_type": "functional"}, "RG2 [5]": {"tested_on": "RG2", "assay": "Synergistic cytotoxicity against rat RG2 cells assessed as synergistic effect index at 89.9 uM after 48 hrs in presence of 515.1 uM TMZ by MTT assay", "assay_type": "functional"}, "RG2 [6]": {"tested_on": "RG2", "assay": "Synergistic cytotoxicity against rat RG2 cells assessed as synergistic effect index at 134.9 uM after 48 hrs in presence of 515.1 uM TMZ by MTT assay", "assay_type": "functional"}, "[7]": {"assay": "Synergistic cytotoxicity against rat CTX TNA2 cells assessed as combination index at 134.9 uM after 48 hrs in presence of 412.1 uM TMZ by MTT assay", "assay_type": "cell-based", "conditions": "ctx tna2, 48 h"}, "DBTRG-05MG [8]": {"tested_on": "DBTRG-05MG", "assay": "Induction of cell cycle arrest in human DBTRG-05MG cells assessed as accumulation at G2/M phase at 112.4 uM after 12 hrs in presence of TMZ by propidium iodide staining based flow cytometric analysis (reference value: 30.08 +/- 0.1%)", "assay_type": "functional"}, "DBTRG-05MG [9]": {"tested_on": "DBTRG-05MG", "assay": "Induction of cell cycle arrest in human DBTRG-05MG cells assessed as accumulation at G2/M phase at 112.4 uM after 24 hrs in presence of TMZ by propidium iodide staining based flow cytometric analysis (reference value: 30.08 +/- 0.1%)", "assay_type": "functional"}, "RG2 [10]": {"tested_on": "RG2", "assay": "Induction of cell cycle arrest in rat RG2 cells assessed as accumulation at G0/G1 phase at 112.4 uM after 6 hrs by propidium iodide staining based flow cytometric analysis (reference value: 57.81 +/- 1.9%)", "assay_type": "functional"}, "RG2 [11]": {"tested_on": "RG2", "assay": "Induction of cell cycle arrest in rat RG2 cells assessed as accumulation at G0/G1 phase at 112.4 uM after 12 hrs in presence of TMZ by propidium iodide staining based flow cytometric analysis (reference value: 57.81 +/- 1.9%)", "assay_type": "functional"}, "DBTRG-05MG [12]": {"tested_on": "DBTRG-05MG", "assay": "Induction of cell cycle arrest in human DBTRG-05MG cells assessed as CDK4 expression at 112.4 uM after 48 hrs by Western blot analysis (reference value: 1)", "assay_type": "functional"}, "RG2 [13]": {"tested_on": "RG2", "assay": "Induction of cell cycle arrest in rat RG2 cells assessed as CDK2 expression at 112.4uM after 48 hrs in presence of TMZ by Western blot analysis (reference value: 1)", "assay_type": "functional"}, "[14]": {"assay": "Effect on p38 expression in human DBTRG-05MG cells at 112.4uM after 48 hrs by Western blot analysis (reference value: 1)", "assay_type": "functional"}, "[15]": {"target": "MAP kinase p38 (Homo sapiens) (UniProt O15264+Q15759+Q16539+P53778)", "assay": "Inhibition of p38 phosphorylation at Tyr182 residues in human DBTRG-05MG cells at 112.4uM after 48 hrs by Western blot analysis (reference value: 1)", "assay_type": "cell-based"}, "[16]": {"assay": "Effect on AKT expression in rat RG2 cells at 112.4uM after 48 hrs by Western blot analysis (reference value: 1)", "assay_type": "functional"}, "RG2 [17]": {"tested_on": "RG2", "assay": "Inhibition of AKT phosphorylation at S473 residues in rat RG2 cells at 112.4uM after 48 hrs by Western blot analysis", "assay_type": "cell-based"}, "[18]": {"assay": "Effect on JNK expression in rat RG2 cells at 112.4uM after 48 hrs in presence of TMZ by Western blot analysis (reference value: 1)", "assay_type": "functional"}, "[19]": {"assay": "Effect on p38 expression in rat RG2 cells at 112.4uM after 48 hrs in presence of TMZ by Western blot analysis (reference value: 1)", "assay_type": "functional"}, "RG2 [20]": {"tested_on": "RG2", "assay": "Induction of apoptosis in rat RG2 cells assessed as phosphorylated caspace-9 expression at 112.4 uM after 48 hrs in presence of TMZ by Western blot analysis (reference value: 1)", "assay_type": "functional"}, "RG2 [21]": {"tested_on": "RG2", "assay": "Induction of apoptosis in rat RG2 cells assessed as phosphorylated caspace-3 expression at 112.4 uM after 48 hrs in presence of TMZ by Western blot analysis (reference value: 1)", "assay_type": "functional"}, "RG2 [22]": {"tested_on": "RG2", "assay": "Induction of DNA damage in rat RG2 cells at 112.4 uM after 48 hrs in presence of TMZ by p.H2A.X staining based fluorescent immunocytochemistry method", "assay_type": "functional, cell-based"}, "RG2 [23]": {"tested_on": "RG2", "assay": "Induction of DNA damage in rat RG2 cells assessed as ATR phosphorylation at ser428 residues at 112.4 uM after 48 hrs by Western blot analysis (reference value: 1)", "assay_type": "functional"}, "DBTRG-05MG [24]": {"tested_on": "DBTRG-05MG", "assay": "Induction of DNA damage in human DBTRG-05MG cells assessed as ATM phosphorylation at ser1981 residues at 112.4 uM after 48 hrs in presence of TMZ by Western blot analysis (reference value: 1)", "assay_type": "functional"}, "RG2 [25]": {"tested_on": "RG2", "assay": "Induction of DNA damage in rat RG2 cells assessed as Chk2 phosphorylation at Thr68 at 112.4 uM after 48 hrs in presence of TMZ by Western blot analysis (reference value: 1)", "assay_type": "functional"}, "[26]": {"assay": "Effect of MGMT expression in human DBTRG-05MG cells at 112.4 uM after 48 hrs by Western blot analysis (reference value: 1)", "assay_type": "functional"}, "[27]": {"assay": "Effect of MDR1 expression in human DBTRG-05MG cells at 112.4 uM after 48 hrs by Western blot analysis", "assay_type": "functional"}, "[28]": {"assay": "Effect of MGMT expression in rat RG2 cells at 112.4 uM after 48 hrs by Western blot analysis (reference value: 1)", "assay_type": "functional"}, "[29]": {"assay": "Toxicity in BALB/c mouse xenografted with DBTRG-05MG cells assessed as reduction in body weight at 5 mg/kg, ip after 5 days measured every 2 days", "assay_type": "organism-based", "conditions": "in vivo, 120 h, time 5 day"}, "DBTRG-05MG [30]": {"tested_on": "DBTRG-05MG", "assay": "Induction of cell cycle arrest in human DBTRG-05MG cells assessed as accumulation at G2/M phase at 206 uM after 6 hrs by propidium iodide staining based flow cytometric analysis (reference value: 30.08 +/- 0.1%)", "assay_type": "functional"}, "RG2 [31]": {"tested_on": "RG2", "assay": "Induction of cell cycle arrest in rat RG2 cells assessed as accumulation at G2/M phase at 206 uM after 12 hrs by propidium iodide staining based flow cytometric analysis (reference value: 20.04 +/- 0.55%)", "assay_type": "functional"}, "[32]": {"assay": "Effect on AKT expression in human DBTRG-05MG cells at 206 uM after 48 hrs by Western blot analysis (reference value: 1)", "assay_type": "functional"}, "RG2 [33]": {"tested_on": "RG2", "assay": "Induction of apoptosis in rat RG2 cells assessed as increase in apoptotic body formation at 206 uM after 48 hrs by TUNEL assay", "assay_type": "functional, cell-based"}, "DBTRG-05MG [34]": {"tested_on": "DBTRG-05MG", "assay": "Antitumour activity against human DBTRG-05MG cells xenografted in BALB/c nude mouse assessed as increase in survival time at 5 mg/kg, ip for 5 days and measured every 2 days", "assay_type": "functional, organism-based", "conditions": "time 5.0 day"}},
  "note": "Calls of active or inactive are those of the source. The calls are words filed in the database; no cut-off is given here.",
  "data": [
    {"smiles": "C[C@@H]1CC[C@H]2C(C)(C)[C@H]3C[C@@]12CC[C@@]3(C)O", "note": "[CEDROL]", "values": [
      {"measurement": "CI", "setting": "DBTRG-05MG [1]", "value": 0.74},
      {"measurement": "CI", "setting": "DBTRG-05MG [2]", "value": 0.62},
      {"measurement": "Activity_index", "setting": "RG2 [3]", "value": 0.72},
      {"measurement": "Activity_index", "setting": "RG2 [4]", "value": 0.66},
      {"measurement": "Activity_index", "setting": "RG2 [5]", "value": 0.69},
      {"measurement": "Activity_index", "setting": "RG2 [6]", "value": 0.89},
      {"measurement": "CI", "setting": "[7]", "value": 1.13},
      {"measurement": "Activity", "setting": "DBTRG-05MG [8]", "value": 33.68, "unit": "%"},
      {"measurement": "Activity", "setting": "DBTRG-05MG [9]", "value": 36.89, "unit": "%"},
      {"measurement": "Activity", "setting": "RG2 [10]", "value": 60.95, "unit": "%"},
      {"measurement": "Activity", "setting": "RG2 [11]", "value": 61.92, "unit": "%"},
      {"measurement": "fold change (FC)", "setting": "DBTRG-05MG [12]", "value": 1},
      {"measurement": "fold change (FC)", "setting": "RG2 [13]", "value": 0.4},
      {"measurement": "fold change (FC)", "setting": "[14]", "value": 1.1},
      {"measurement": "fold change (FC)", "setting": "[15]", "value": 1},
      {"measurement": "fold change (FC)", "setting": "[16]", "value": 0.6},
      {"measurement": "fold change (FC)", "setting": "RG2 [17]", "value": 0.8},
      {"measurement": "fold change (FC)", "setting": "[18]", "value": 0.5},
      {"measurement": "fold change (FC)", "setting": "[19]", "value": 0.5},
      {"measurement": "fold change (FC)", "setting": "RG2 [20]", "value": 0.4},
      {"measurement": "fold change (FC)", "setting": "RG2 [21]", "value": 1.2},
      {"measurement": "Activity", "setting": "RG2 [22]", "value": "Active"},
      {"measurement": "fold change (FC)", "setting": "RG2 [23]", "value": 0.9},
      {"measurement": "fold change (FC)", "setting": "DBTRG-05MG [24]", "value": 2.9},
      {"measurement": "fold change (FC)", "setting": "RG2 [25]", "value": 1.6},
      {"measurement": "fold change (FC)", "setting": "[26]", "value": 0.8},
      {"measurement": "fold change (FC)", "setting": "[27]", "value": 1.2},
      {"measurement": "fold change (FC)", "setting": "[28]", "value": 0.7}
    ]},
    {"smiles": "Cn1nnc2c(C(N)=O)ncn2c1=O", "note": "[TEMOZOLOMIDE]", "values": [
      {"measurement": "Activity", "setting": "[29]", "value": "Non-Toxic"},
      {"measurement": "Activity", "setting": "DBTRG-05MG [30]", "value": 34.67, "unit": "%"},
      {"measurement": "Activity", "setting": "RG2 [31]", "value": 28.32, "unit": "%"},
      {"measurement": "fold change (FC)", "setting": "[32]", "value": 1},
      {"measurement": "Activity", "setting": "RG2 [33]", "value": "Active"},
      {"measurement": "Activity", "setting": "DBTRG-05MG [34]", "value": "Active"}
    ]}
  ]
}
